From the supplement of paper PMC10307832

Compound: CCOC(=O)CCNc1cc(N2CCc3ccccc3CC2)nc(-c2ccccn2)n1 [GSK-J4] + N=C(N)NC(=N)NCCc1ccccc1 [Phenformin] (partner 250 µM)
Assay: relative viability (nuclei count vs DMSO), 5 days (fraction); higher = more cells survive
Conditions: first compound 0.5 µM
Method in brief: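 Cells from lung cancer lines were seeded into 1536-well plates and, one day later, dosed by pin tool. Treatments were either a single drug or a fixed dose of an anchor drug with five library-drug doses (not always all listed) in √10 steps. After 5 days, nuclei were stained in a one-step fixation (final 0.05% Triton X-100, 1% formaldehyde, 1 ug/ml Hoechst) and counted on 4× images, and relative viability is the treated-to-vehicle nuclei ratio, as the median of duplicate plates.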

Cell Line | relative viability
NCI-H522 | 0.64
NCI-H1623 | 0.597
PC-14 | 0.624
NCI-H1666 | 0.512
EKVX | 0.252
NCI-H1755 | 0.606
NCI-H2023 | 0.441
HCC-78 | 0.87
SK-LU-1 | 0.48
PC-3 [JPC-3] | 0.481
LOU-NH91 | 0.716
NCI-H647 | 0.618
NCI-H23 | 0.71
EPLC-272H | 0.347
NCI-H2126 | 0.537
ChaGo-K-1 | 0.488
HCC-44 | 0.253

Cell Line | relative viability
NCI-H1734 | 0.425
NCI-H650 | 0.455
LK-2 | 0.707
NCI-H2228 | 0.331
NCI-H2342 | 0.652
NCI-H1944 | 0.2
HARA | 0.455
COR-L23 | 0.412
LCLC-103H | 0.32
LXF-289 | 0.506
NCI-H358 | 0.443
NCI-H322M | 0.788
LC-2-ad | 0.635
HCC-827 | 0.366
A549 | 0.146
NCI-H596 | 0.821
NCI-H1563 | 0.665

Same assay, conditions: first compound 1.581 µM

Cell Line | relative viability
NCI-H522 | 0.656
NCI-H1623 | 0.457
PC-14 | 0.555
NCI-H1666 | 0.515
EKVX | 0.213
NCI-H1755 | 0.5
HCC-78 | 0.731
SK-LU-1 | 0.495
PC-3 [JPC-3] | 0.48
LOU-NH91 | 0.69
NCI-H647 | 0.398
NCI-H23 | 0.723
EPLC-272H | 0.24
NCI-H2126 | 0.505
ChaGo-K-1 | 0.49
HCC-44 | 0.222

Cell Line | relative viability
NCI-H1734 | 0.365
NCI-H650 | 0.419
NCI-H2228 | 0.205
NCI-H2342 | 0.629
NCI-H1944 | 0.193
COR-L23 | 0.408
LCLC-103H | 0.296
LXF-289 | 0.445
NCI-H358 | 0.264
NCI-H322M | 0.553
LC-2-ad | 0.499
HCC-827 | 0.383
A549 | 0.156
NCI-H596 | 0.67
NCI-H1563 | 0.71

Same assay, conditions: first compound 5 µM

Cell Line | relative viability
NCI-H522 | 0.595
NCI-H1623 | 0.623
PC-14 | 0.432
NCI-H1666 | 0.605
EKVX | 0.236
NCI-H1755 | 0.367
NCI-H2023 | 0.395
HCC-78 | 0.946
SK-LU-1 | 0.323
PC-3 [JPC-3] | 0.521
LOU-NH91 | 0.561
NCI-H647 | 0.415
NCI-H23 | 0.627
EPLC-272H | 0.192
NCI-H2126 | 0.55
ChaGo-K-1 | 0.438

Cell Line | relative viability
HCC-44 | 0.134
NCI-H1734 | 0.328
NCI-H650 | 0.322
LK-2 | 0.416
NCI-H2228 | 0.42
NCI-H2342 | 0.573
NCI-H1944 | 0.124
LCLC-103H | 0.224
LXF-289 | 0.408
NCI-H358 | 0.349
NCI-H322M | 0.806
LC-2-ad | 0.495
HCC-827 | 0.426
A549 | 0.0648
NCI-H596 | 0.626
NCI-H1563 | 0.607

Same assay, conditions: first compound 15.81 µM

Cell Line | relative viability
NCI-H522 | 0.543
NCI-H1623 | 0.398
PC-14 | 0.537
NCI-H1666 | 0.486
EKVX | 0.177
NCI-H1755 | 0.49
NCI-H2023 | 0.35
HCC-78 | 0.588
SK-LU-1 | 0.365
PC-3 [JPC-3] | 0.5
LOU-NH91 | 0.647
NCI-H647 | 0.498
NCI-H23 | 0.648
EPLC-272H | 0.3
NCI-H2126 | 0.485
ChaGo-K-1 | 0.475
HCC-44 | 0.124

Cell Line | relative viability
NCI-H1734 | 0.332
NCI-H650 | 0.422
LK-2 | 0.23
NCI-H2228 | 0.244
NCI-H2342 | 0.706
NCI-H1944 | 0.155
HARA | 0.396
COR-L23 | 0.39
LCLC-103H | 0.331
LXF-289 | 0.53
NCI-H358 | 0.266
NCI-H322M | 0.729
LC-2-ad | 0.568
HCC-827 | 0.355
A549 | 0.0756
NCI-H596 | 0.633
NCI-H1563 | 0.56

Same assay, conditions: first compound 50 µM

Cell Line | relative viability
NCI-H522 | 0.588
NCI-H1623 | 0.545
PC-14 | 0.53
NCI-H1666 | 0.464
EKVX | 0.237
NCI-H1755 | 0.56
NCI-H2023 | 0.342
HCC-78 | 0.528
SK-LU-1 | 0.245
PC-3 [JPC-3] | 0.488
LOU-NH91 | 0.802
NCI-H647 | 0.532
NCI-H23 | 0.671
EPLC-272H | 0.154
NCI-H2126 | 0.456
ChaGo-K-1 | 0.422
HCC-44 | 0.137
NCI-H1734 | 0.31
NCI-H650 | 0.423
LK-2 | 0.253
NCI-H2228 | 0.355
NCI-H2342 | 0.595
NCI-H1944 | 0.174
HARA | 0.386
COR-L23 | 0.393
LCLC-103H | 0.33
LXF-289 | 0.515
NCI-H358 | 0.255
NCI-H322M | 0.545
